We go through two molecules from ChEMBL document CHEMBL4800727 (2021).

pKi: −log10 of the molar value.

For test [1], the target named is GABA-A receptor; anion channel. Description: GPCRScan assay: inhibition of GABAA. Set-up: radioligand conc. used [nm] 9.50 – 25.0, parental cells brain tissue. It is filed as protein-complex assay, Rattus norvegicus.
Test [2] has as its target Beta-3 adrenergic receptor (Homo sapiens) (UniProt P13945). The settings on record: Compound concentration 10.0 uM.
For test [3], the target named is 5-hydroxytryptamine receptor 2B (Homo sapiens, UniProt P41595). As to the kind of experiment: GPCRScan assay: inhibition of 5-HT2B. Set-up: radioligand conc. used [nm] 1.0 – 2.0, parental cells stable HEK.
Test [4] has as its target Inhibitor of nuclear factor kappa-B kinase subunit alpha (Homo sapiens) (UniProt O15111). As to the kind of experiment: conserved helix-loop-helix ubiquitous kinase Millipore kinase panel. The conditions noted are these: Compound concentration 10.0 uM.
For test [5], the target named is Cyclin-dependent kinase 2/cyclin E (Homo sapiens) (UniProt P24864+P24941+O96020). As to the kind of experiment: cyclin-dependent kinase 2 /clyclinE Millipore kinase panel. Type of test: protein-complex assay. The conditions noted are these: Compound concentration 10.0 uM.
Test [6] has as its target CDK3/cyclin E (Homo sapiens) (UniProt P24864+O96020+Q00526). As to the kind of experiment: cyclin-dependent kinase 3 / cyclinE Millipore kinase panel. It is filed as protein-complex assay. The settings on record: Compound concentration 10.0 uM.
In test [7] the target is CDK7/Cyclin H/MNAT1 (Homo sapiens) (UniProt P51946+P50613+P51948). As to the kind of experiment: Cyclin-dependent kinase 7 / cyclinH / MAT Millipore kinase panel. It is filed as protein-complex assay. The settings on record: Compound concentration 10.0 uM.
Test [8] addresses CDK9/cyclin T1 (Homo sapiens) (UniProt O60563+P50750). Description: cyclin-dependent kinase 9 / cyclinT1 Millipore kinase panel. It is filed as protein-complex assay. The settings on record: Compound concentration 10.0 uM.
Test [9] deals with Ephrin type-A receptor 1 (Homo sapiens) (UniProt P21709). As to the kind of experiment: EPH receptor A1 Millipore kinase panel. The conditions noted are these: Compound concentration 10.0 uM.
Test [10] addresses Ephrin type-A receptor 7 (Homo sapiens) (UniProt Q15375). Description: EPH receptor A7 Millipore kinase panel. The conditions noted are these: Compound concentration 10.0 uM.
Test [11] addresses Ephrin type-B receptor 1 (Homo sapiens) (UniProt P54762). Description: EPH receptor B1 Millipore kinase panel. The settings on record: Compound concentration 10.0 uM.
For test [12], the target named is Vascular endothelial growth factor receptor 3 (Homo sapiens) (UniProt P35916). Description: fms-related tyrosine kinase 4 Millipore kinase panel. The conditions noted are these: Compound concentration 10.0 uM.
Test [13] has as its target Rhodopsin kinase GRK7 (Homo sapiens) (UniProt Q8WTQ7). As to the kind of experiment: G protein-coupled receptor kinase 7 Millipore kinase panel. The settings on record: Compound concentration 10.0 uM.
Test [14] addresses Glycogen synthase kinase-3 beta (Homo sapiens) (UniProt P49841). As to the kind of experiment: glycogen synthase kinase 3 beta Millipore kinase panel. The settings on record: Compound concentration 10.0 uM.
For test [15], the target named is Homeodomain-interacting protein kinase 3 (Homo sapiens) (UniProt Q9H422). Description: homeodomain interacting protein kinase 3 Millipore kinase panel. The conditions noted are these: Compound concentration 10.0 uM.
Test [16] addresses MAP kinase-activated protein kinase 5 (Homo sapiens) (UniProt Q8IW41). As to the kind of experiment: mitogen-activated protein kinase-activated protein kinase 5 Millipore kinase panel. The conditions noted are these: Compound concentration 10.0 uM.
Test [17] concerns the target Mitogen-activated protein kinase 1 (Homo sapiens) (UniProt P28482). As to the kind of experiment: mitogen-activated protein kinase 1 (MAPK2) Millipore kinase panel. The conditions noted are these: Compound concentration 10.0 uM.
For test [18], the target named is Protein kinase C eta type (Homo sapiens) (UniProt P24723). Description: protein kinase C, eta Millipore kinase panel. The conditions noted are these: Compound concentration 10.0 uM.
Test [19] deals with Protein kinase C theta type (Homo sapiens) (UniProt Q04759). Description: protein kinase C, theta Millipore kinase panel. The settings on record: Compound concentration 10.0 uM.
In test [20] the target is Protein-tyrosine kinase 6 (Homo sapiens) (UniProt Q13882). As to the kind of experiment: PTK6 protein tyrosine kinase 6 Millipore kinase panel. The settings on record: Compound concentration 10.0 uM.
Test [21] deals with Ribosomal protein S6 kinase beta-1 (Homo sapiens) (UniProt P23443). Description: ribosomal protein S6 kinase, 70kDa, polypeptide 1 Millipore kinase panel. The settings on record: Compound concentration 10.0 uM.
The target in test [22] is Serine/threonine-protein kinase 10 (Homo sapiens) (UniProt O94804). Description: serine/threonine kinase 10 Millipore kinase panel. The conditions noted are these: Compound concentration 10.0 uM.
In test [23] the target is Angiopoietin-1 receptor (Homo sapiens) (UniProt Q02763). As to the kind of experiment: TEK tyrosine kinase, endothelial Millipore kinase panel. The settings on record: Compound concentration 10.0 uM.
The target in test [24] is Tyrosine-protein kinase TXK (Homo sapiens) (UniProt P42681). Description: TXK tyrosine kinase Millipore kinase panel. The settings on record: Compound concentration 10.0 uM.
Test [25] has as its target Tyrosine-protein kinase receptor TYRO3 (Homo sapiens) (UniProt Q06418). Description: TYRO3 protein tyrosine kinase Millipore kinase panel. The settings on record: Compound concentration 10.0 uM.
The target in test [26] is RAC-gamma serine/threonine-protein kinase (Homo sapiens) (UniProt Q9Y243). Description: v-akt murine thymoma viral oncogene homolog 3 Millipore kinase panel. The settings on record: Compound concentration 10.0 uM.
Test [27] addresses Tyrosine-protein kinase Lyn (Homo sapiens) (UniProt P07948). Description: v-yes-1 Yamaguchi sarcoma viral related oncogene homolog Millipore kinase panel. The conditions noted are these: Compound concentration 10.0 uM.
In test [28] the target is cGMP-dependent 3',5'-cyclic phosphodiesterase (Homo sapiens, UniProt O00408). As to the kind of experiment: hPDE2A PDE scan.
For test [29], the target named is Rod cGMP-specific 3',5'-cyclic phosphodiesterase subunit alpha (Homo sapiens, UniProt P16499). As to the kind of experiment: hPDE6AB PDE scan.
The target of test [30] is High affinity 3',5'-cyclic-AMP phosphodiesterase 7A (Homo sapiens, UniProt Q13946). As to the kind of experiment: hPDE7A1 PDE scan.
In test [31] the target is High affinity cAMP-specific and IBMX-insensitive 3',5'-cyclic phosphodiesterase 8A (Homo sapiens, UniProt O60658). As to the kind of experiment: hPDE8A1 PDE scan.
Test [32] has as its target C-C chemokine receptor type 1 (Homo sapiens) (UniProt P32246). As to the kind of experiment: hCCR1 Cerep panel. The conditions noted are these: Compound concentration 10.0 uM.
Test [33] concerns the target 5-hydroxytryptamine receptor 1B (Rattus norvegicus) (UniProt P28564). As to the kind of experiment: r5HT1B Cerep panel. The settings on record: Compound concentration 10.0 uM.
The target of test [34] is Adenosine receptor A1 (Homo sapiens) (UniProt P30542). As to the kind of experiment: hA1 Cerep panel. The conditions noted are these: Compound concentration 10.0 uM.
Test [35] deals with Adenosine receptor A3 (Homo sapiens) (UniProt P0DMS8). Description: hA3 Cerep panel. The settings on record: Compound concentration 10.0 uM.
The species entered for test [36] is Rattus norvegicus. Description: rGABA Cerep panel. The settings on record: Compound concentration 10.0 uM.
For test [37], the species on record is Rattus norvegicus. As to the kind of experiment: rSLC6/GABA Cerep panel. The settings on record: Compound concentration 10.0 uM.
In test [38] the target is Glutamate NMDA receptor (Rattus norvegicus) (UniProt P35439+Q00959+Q00960+Q00961+Q62645+Q8VHN2+Q9R1M7). Description: rNMDA Cerep panel. It is filed as protein-complex assay. The conditions noted are these: Compound concentration 10.0 uM.
A short description of test [39]: glyine Cerep panel. The conditions noted are these: Compound concentration 10.0 uM.
For test [40], the target named is T1, 5-hydroxytryptamine receptor 2C (Homo sapiens) (UniProt P28335).
T1 sequence (whole entry): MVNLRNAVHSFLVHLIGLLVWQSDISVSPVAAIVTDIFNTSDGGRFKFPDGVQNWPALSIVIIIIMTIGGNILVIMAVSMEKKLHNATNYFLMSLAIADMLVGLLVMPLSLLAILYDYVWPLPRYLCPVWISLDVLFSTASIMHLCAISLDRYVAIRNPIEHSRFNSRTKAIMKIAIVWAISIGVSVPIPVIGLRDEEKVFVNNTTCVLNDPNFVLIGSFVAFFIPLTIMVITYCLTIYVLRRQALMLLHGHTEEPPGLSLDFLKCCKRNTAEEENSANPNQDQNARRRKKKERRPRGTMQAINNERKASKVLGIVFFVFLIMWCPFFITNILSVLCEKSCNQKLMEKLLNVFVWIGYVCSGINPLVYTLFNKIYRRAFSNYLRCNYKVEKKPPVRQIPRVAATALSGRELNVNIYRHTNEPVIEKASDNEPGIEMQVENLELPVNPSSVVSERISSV
As to the kind of experiment: h5HT2C Cerep panel. The conditions noted are these: Compound concentration 10.0 uM.

For test [41], the target named is Somatostatin receptor (Mus musculus) (UniProt P30935+O08858+P30875+P30873+P49660). Description: mSST Cerep panel. It is filed as protein assay. The settings on record: Compound concentration 10.0 uM.
Another test is filed under the species Homo sapiens. Description: hN muscle type alpha Cerep panel. The conditions noted are these: Compound concentration 10.0 uM.
The target in test [42] is Tyrosine-protein kinase Lck (Homo sapiens) (UniProt P06239). As to the kind of experiment: hLck Cerep panel. The conditions noted are these: Compound concentration 10.0 uM.
The target in test [43] is Muscarinic acetylcholine receptor M3 (Homo sapiens) (UniProt P20309). The settings on record: Compound concentration 10.0 uM.

Sequence of 5-hydroxytryptamine receptor 2B (P41595 whole entry): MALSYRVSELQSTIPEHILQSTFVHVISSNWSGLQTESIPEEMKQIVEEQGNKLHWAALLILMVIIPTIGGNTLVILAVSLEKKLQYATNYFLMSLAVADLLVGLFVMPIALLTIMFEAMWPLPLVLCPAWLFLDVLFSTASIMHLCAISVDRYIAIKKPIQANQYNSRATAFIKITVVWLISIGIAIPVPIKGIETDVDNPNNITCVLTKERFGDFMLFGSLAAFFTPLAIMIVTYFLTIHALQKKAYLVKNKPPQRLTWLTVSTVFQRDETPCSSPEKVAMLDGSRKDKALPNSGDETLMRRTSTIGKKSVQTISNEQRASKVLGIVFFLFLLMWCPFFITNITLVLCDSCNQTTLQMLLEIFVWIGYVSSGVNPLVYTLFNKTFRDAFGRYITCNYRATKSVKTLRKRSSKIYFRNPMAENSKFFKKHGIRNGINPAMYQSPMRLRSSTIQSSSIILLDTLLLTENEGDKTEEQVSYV
Sequence of Somatostatin receptor (Mus musculus) (P30935 whole entry): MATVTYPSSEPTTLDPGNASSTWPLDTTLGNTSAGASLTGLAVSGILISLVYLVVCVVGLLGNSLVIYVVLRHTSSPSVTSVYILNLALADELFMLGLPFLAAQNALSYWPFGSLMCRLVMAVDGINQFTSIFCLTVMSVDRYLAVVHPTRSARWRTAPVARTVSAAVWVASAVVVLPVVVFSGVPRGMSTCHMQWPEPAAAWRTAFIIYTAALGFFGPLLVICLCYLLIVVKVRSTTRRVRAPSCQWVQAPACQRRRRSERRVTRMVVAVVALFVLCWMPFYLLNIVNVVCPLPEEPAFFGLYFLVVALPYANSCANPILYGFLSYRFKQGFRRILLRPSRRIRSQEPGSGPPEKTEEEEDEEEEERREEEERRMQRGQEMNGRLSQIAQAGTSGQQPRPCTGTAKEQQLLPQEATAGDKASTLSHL
Sequence of Somatostatin receptor (Mus musculus) (O08858 whole entry): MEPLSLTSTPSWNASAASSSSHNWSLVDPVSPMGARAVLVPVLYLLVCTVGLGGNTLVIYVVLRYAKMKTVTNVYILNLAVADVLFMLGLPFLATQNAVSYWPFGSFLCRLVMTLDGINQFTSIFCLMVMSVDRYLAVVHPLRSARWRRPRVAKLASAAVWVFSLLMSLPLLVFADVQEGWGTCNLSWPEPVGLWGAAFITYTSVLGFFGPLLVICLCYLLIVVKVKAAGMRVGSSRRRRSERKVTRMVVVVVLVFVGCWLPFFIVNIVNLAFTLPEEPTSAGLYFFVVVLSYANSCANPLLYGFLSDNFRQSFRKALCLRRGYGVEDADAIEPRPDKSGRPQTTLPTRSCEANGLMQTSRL
Sequence of Somatostatin receptor (Mus musculus) (P30875 whole entry): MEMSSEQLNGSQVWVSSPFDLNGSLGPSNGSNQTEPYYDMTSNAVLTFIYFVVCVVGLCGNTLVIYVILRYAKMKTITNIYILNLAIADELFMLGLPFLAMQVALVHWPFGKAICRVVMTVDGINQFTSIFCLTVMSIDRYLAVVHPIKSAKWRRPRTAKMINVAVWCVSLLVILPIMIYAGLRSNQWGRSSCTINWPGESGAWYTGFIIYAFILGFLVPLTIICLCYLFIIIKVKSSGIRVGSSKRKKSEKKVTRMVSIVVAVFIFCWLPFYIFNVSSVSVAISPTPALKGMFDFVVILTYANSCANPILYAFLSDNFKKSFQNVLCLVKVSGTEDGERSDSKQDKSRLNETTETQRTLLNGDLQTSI
Sequence of Somatostatin receptor (Mus musculus) (P30873 whole entry): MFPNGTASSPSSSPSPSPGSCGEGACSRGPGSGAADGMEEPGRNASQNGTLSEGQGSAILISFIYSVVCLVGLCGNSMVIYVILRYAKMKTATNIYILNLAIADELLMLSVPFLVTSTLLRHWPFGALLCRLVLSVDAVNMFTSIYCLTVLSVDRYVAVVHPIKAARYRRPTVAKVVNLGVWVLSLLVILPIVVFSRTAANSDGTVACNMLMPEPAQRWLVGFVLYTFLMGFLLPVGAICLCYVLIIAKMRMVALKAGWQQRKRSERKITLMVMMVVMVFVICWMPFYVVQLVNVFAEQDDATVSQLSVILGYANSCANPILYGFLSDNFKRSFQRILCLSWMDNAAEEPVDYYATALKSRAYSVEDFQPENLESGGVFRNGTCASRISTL
Sequence of Somatostatin receptor (Mus musculus) (P49660 with tags, fused parts or gaps): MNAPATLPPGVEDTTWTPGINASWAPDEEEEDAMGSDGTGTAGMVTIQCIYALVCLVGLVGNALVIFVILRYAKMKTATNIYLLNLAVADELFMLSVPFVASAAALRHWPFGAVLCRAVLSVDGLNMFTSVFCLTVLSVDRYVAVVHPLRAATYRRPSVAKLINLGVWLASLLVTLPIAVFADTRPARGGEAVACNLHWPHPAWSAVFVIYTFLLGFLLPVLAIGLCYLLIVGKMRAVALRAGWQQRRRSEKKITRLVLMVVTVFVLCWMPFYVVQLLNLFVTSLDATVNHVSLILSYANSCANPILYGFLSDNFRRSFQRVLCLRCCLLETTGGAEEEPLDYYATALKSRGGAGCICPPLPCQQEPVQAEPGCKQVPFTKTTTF
Sequence of Beta-3 adrenergic receptor (Homo sapiens) (P13945 whole entry, looked up): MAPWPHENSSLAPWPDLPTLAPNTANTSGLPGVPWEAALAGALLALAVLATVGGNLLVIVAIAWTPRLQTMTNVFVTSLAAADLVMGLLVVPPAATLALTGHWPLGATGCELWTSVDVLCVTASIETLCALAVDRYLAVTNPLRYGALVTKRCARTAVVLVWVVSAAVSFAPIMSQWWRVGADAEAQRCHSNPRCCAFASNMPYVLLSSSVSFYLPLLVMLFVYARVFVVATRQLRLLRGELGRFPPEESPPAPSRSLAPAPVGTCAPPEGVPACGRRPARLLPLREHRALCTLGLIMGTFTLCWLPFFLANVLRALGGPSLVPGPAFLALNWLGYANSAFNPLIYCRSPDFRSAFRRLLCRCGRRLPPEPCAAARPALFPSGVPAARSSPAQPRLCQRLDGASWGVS
Sequence of Ephrin type-B receptor 1 (Homo sapiens) (P54762 whole entry): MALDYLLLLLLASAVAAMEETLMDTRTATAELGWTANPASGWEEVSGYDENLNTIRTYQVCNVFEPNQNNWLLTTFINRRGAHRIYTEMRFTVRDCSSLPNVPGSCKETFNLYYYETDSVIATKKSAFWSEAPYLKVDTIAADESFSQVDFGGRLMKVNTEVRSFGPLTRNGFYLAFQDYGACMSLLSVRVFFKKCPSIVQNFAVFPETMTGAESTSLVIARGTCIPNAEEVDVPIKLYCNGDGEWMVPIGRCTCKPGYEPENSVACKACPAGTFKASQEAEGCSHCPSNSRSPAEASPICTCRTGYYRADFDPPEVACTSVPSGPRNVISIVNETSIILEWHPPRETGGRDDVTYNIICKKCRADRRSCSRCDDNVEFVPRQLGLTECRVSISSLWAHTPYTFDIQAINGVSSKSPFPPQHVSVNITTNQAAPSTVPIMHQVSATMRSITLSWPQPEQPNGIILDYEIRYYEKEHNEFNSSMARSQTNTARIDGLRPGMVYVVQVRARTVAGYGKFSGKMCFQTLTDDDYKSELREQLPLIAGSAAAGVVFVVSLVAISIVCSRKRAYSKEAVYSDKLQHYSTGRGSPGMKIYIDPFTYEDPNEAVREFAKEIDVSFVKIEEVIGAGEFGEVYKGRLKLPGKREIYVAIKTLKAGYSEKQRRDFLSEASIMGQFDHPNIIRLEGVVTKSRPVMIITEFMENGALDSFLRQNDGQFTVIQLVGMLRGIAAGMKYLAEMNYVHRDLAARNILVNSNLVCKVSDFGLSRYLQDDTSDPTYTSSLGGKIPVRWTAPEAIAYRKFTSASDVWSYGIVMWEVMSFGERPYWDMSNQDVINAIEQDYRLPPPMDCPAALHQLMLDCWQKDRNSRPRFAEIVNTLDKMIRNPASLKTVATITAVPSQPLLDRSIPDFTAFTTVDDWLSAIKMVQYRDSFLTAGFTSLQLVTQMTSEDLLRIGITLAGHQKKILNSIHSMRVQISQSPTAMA
Sequence of cGMP-dependent 3',5'-cyclic phosphodiesterase (O00408 whole entry): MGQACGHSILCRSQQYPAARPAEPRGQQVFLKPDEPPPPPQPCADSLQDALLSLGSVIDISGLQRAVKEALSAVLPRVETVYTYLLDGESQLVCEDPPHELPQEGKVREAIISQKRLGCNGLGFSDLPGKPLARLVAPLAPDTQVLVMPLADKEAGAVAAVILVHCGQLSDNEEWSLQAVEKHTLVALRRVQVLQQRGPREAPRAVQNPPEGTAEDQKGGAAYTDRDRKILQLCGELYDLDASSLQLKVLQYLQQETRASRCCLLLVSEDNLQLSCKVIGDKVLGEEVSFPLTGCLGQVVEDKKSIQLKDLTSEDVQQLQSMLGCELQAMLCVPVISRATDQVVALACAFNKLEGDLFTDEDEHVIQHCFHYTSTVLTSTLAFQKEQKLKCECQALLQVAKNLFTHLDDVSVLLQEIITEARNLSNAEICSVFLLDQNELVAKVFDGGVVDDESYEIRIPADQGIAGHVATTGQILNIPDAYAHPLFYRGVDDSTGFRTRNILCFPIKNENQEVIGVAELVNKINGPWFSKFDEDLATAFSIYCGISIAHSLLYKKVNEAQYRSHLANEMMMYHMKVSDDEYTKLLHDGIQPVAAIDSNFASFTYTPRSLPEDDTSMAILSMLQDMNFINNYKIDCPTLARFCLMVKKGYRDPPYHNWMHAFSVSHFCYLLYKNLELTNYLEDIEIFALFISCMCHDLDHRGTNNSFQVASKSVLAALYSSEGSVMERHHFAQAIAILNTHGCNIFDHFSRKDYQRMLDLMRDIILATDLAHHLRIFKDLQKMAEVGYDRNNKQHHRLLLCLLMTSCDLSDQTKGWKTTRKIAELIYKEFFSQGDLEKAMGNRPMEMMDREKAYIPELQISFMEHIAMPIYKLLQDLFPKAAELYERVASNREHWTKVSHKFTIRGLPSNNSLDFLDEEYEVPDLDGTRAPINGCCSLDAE

For the molecule `c1ccc(C2CCN(c3cnc4c(N5CCOCC5)nccn34)CC2)cc1`, in test [1], the pKi is 5.74. Besides, in [2], the inhibition was 2.32%.

For `COCCc1ccc(-c2c(C)nc3c(N4CCOCC4)ccnn23)cn1` [JNJ-42396302], the negative logarithm of the Ki (pKi) in test [3] (read-out: Ki) is 5.64; in [28], 4.49; in test [29] it was 4.07; in [30], 4.64; in test [31] it was 4.39. Besides, the Ki in test [3] (read-out: pKi (converted)) was 2.24 µM. Further, the inhibition in [4] was -3%; in test [5], 1%; in test [6], 7%; in [7] it was 1%; in test [8], -1%; in [9] it was 7%. The inhibition in test [10] was 0%; in test [11], 2%; in test [12] it was -4%; in [13], 6%; in test [14], -1%; in test [15] it was -6%. Besides, the inhibition in [16] was 7%; in test [17] it was 4%; in [18], -2%; in test [19], 2%; in test [20], -6%; in test [21], -7%. Moreover, the inhibition in test [22] is 0%; in [23] it was 1%; in [24], 6%; in [25], 1%; in test [26], 24%; in test [27], -1%. Further, the inhibition in test [43] is 6.41%. Also, the effect was -7.45% in [32]; -2.55% in test [33]; 11.3% in [34]; 8.4% in test [35]; 21.1% in the test listed under Rattus norvegicus [36]; -6% in the test filed under Rattus norvegicus [37]. The effect in test [38] was -9.45%; in test [39], -23.1%; in [40], -1.95%; in [41] it was 2.8%; in the test filed under Homo sapiens it was -7.3%; in test [42], -2.4%.
